Here are results for 3 molecules from publication PMC6930524, “A Prospective Repurposing of Dantrolene as a Multitarget Agent for Alzheimer’s Disease” (Molecules, 2019).

The structures appear in SMILES notation.

In one assay the target is MAO B, human enzyme. Details: method as in PMID 22282722. To be noted: competitive inhibition; cited from earlier work.
Assay [1] is described as follows: DPPH radical scavenging assay. The assay is classed as physicochemical. To be noted: compound 50 μM, DPPH 100 μM. From the text: (§1) Starting from these evidences, we tested DAN in two in vitro models of radical scavenging activity, i.e., the 1,1-diphenyl-2-picryl-hydrazyl (DPPH) and 2,2′-azinobis-(3-ethylbenzothiazoline-6-sulfonic acid) (ABTS) free radical production. Both generate stable nitrogen radicals showing high absorption in visible spectrum, thus allowing easy and straightforward spectrophotometric measures. […] It can be assumed that the antioxidant activity of DAN is independent from its radical scavenging properties.
(§2) Already published protocols for DPPH and […] radical scavenging were used. The scavenging of the radical DPPH^·, or the monocation radical ABTS^·+, were determined by measuring the loss of absorbance at 515 or 755 nm, respectively. Samples were prepared in clear polystyrene flat-bottomed 96-well microplates. […] A preliminary absorbance reading at 755 nm allowed to determine the actual ABTS^·+ concentration (normally 60–70 μM; extinction coefficient ε = 12,000) and set the final concentration of inhibitors to 0.2[ABTS^·+]. 215 μL of ABTS^·+ solution were mixed with 35 μL of stock solution of inhibitors and the decrease in absorbance was monitored. Antioxidant activity was determined from Equation (2) as the percentage of radical production of inhibitor containing samples, compared with control: % radical production = 100 × ABSsample/ABScontrol(2)
On the technique in general: Loss of DPPH colour is used to gauge radical scavenging.

Assay [2] is described as follows: ABTS radical scavenging assay. The assay is classed as physicochemical. To be noted: compound at 0.2·[ABTS+].
Description: as §1, §2

`CN(CCOc1ccc(CC2SC(=O)NC2=O)cc1)c1ccccn1` (stereo not shown) [rosiglitazone]: at MAO B, human enzyme, the “Ki for human MAO B (competitive)” value is “low-”. On to `O=c1c(O)c(-c2ccc(O)c(O)c2)oc2cc(O)cc(O)c12` [quercetin], for which the “DPPH radical scavenging activity” value in assay [1] is given as “strong radical scavenger”. Moreover, the “ABTS radical scavenging activity” value in assay [2] was “strong radical scavenger”. Turning to `CCc1ccc(CCOc2ccc(CC3SC(=O)NC3=O)cc2)nc1` (stereo not shown) [pioglitazone], the “Ki for human MAO B (competitive)” value on MAO B, human enzyme was “submicromolar”.
